Values belong to the molecule of their own block, whether it stands above or below them.
What was measured:
[1] = tested on: HCT116 WT cells; test: In vitro proliferation assay of HCT116 WT cells; type: cell-based; settings: 10 days, 3D CellTiter-Glo
Description: (§1) McCoy's 5A medium, penicillin/streptomycin antibiotics, purchased from Wisent; fetal bovine serum, purchased from Biosera. 3D CellTiter-Glo (chemiluminescent cell viability assay reagent), purchased from Promega. HCT116 WT cell line, purchased from Nanjing Cobioer Biosciences Co., Ltd. HCT116 MTAP KO cell line, purchased from Horizon Discovery. Envision multilabel plate reader (PerkinElmer).
(§2) HCT116 WT and MTAP KO cells were seeded into an ultra-low attachment 96-well U-bottom plate at a density of 80 μL cell suspension per well containing 1000 HCT116 cells. The cell plate was incubated overnight in a CO2 incubator.
(§3) The test compound was serially diluted 5-fold across eight concentrations using a pipette, ranging from 2 mM to 25.6 nM, and tested in duplicate. 78 μL of medium per well was added to an intermediate plate. Subsequently, 2 μL of the serially diluted compound per well was transferred to the corresponding wells of the intermediate plate and mixed well. […] An additional cell plate was prepared to read the signal value on the day of compound addition, which served as the […] for data analysis.
(§4) The cell plate was added with 100 μL of chemiluminescent cell viability assay reagent per well and incubated at room temperature for 10 minutes to stabilize the luminescent signal. A multilabel microplate reader was used for reading. […]

[2] = tested on: HCT116 MTAP KO cells; test: In vitro proliferation assay of HCT116 MTAP KO cells; type: cell-based; settings: 10 days, 3D CellTiter-Glo
Description: as §1, §2, §3, §4

[3] = tested on: human large cell lung cancer LU99 subcutaneous xenograft tumor; test: In vivo efficacy test, LU99 subcutaneous xenograft tumor model; design: species or system BALB/c nude mice; settings: for TGI: based on tumor volume on day 29
Description: To evaluate the tumor inhibitory effect of the compounds of the present disclosure on a human large cell lung cancer LU99 subcutaneous xenograft tumor model.
Female BALB/c nude mice were subcutaneously inoculated with the human large cell lung cancer LU99 cell line. After inoculation, the mice were randomly divided into groups based on body weight and tumor volume, with six animals per group, and were administered as described below.
Group 1 (vehicle group): When the tumor volume reached 207±9 mm^3 after inoculation, the mice were administered daily by gavage with the vehicle (5% DMSO/10% Solutol/85% double-distilled water) at a dose of 0.1 mL/10 g.
Group 2 (treatment group): When the tumor volume reached 207±10 mm^3 after inoculation, the mice were administered daily by gavage with the test compound (compound dissolved in 5% DMSO/10% Solutol/85% double-distilled water) at a dose of 12.5 mg/kg.
Group 3 (treatment group): When the tumor volume reached 207±10 mm^3 after inoculation, the mice were administered daily by gavage with the test compound (compound dissolved in 5% DMSO/10% Solutol/85% double-distilled water) at a dose of 25 mg/kg.
Group 4 (treatment group): When the tumor volume reached 207±14 mm^3 after inoculation, the mice were administered daily by gavage with the test compound (compound dissolved in 5% DMSO/10% Solutol/85% double-distilled water) at a dose of 50 mg/kg.
After the experimental grouping, the mice were weighed twice weekly, and the tumor diameters were measured using a vernier caliper. The tumor volume was calculated, and then the tumor growth inhibition (TGI) was calculated. On day 29 after experimental administration, the mice were euthanized and sampled. The calculation formulas are as follows:
Tumor volume=0.5×Length×Width^2
TGI (%)=[1−(Ti−T0)/(Ci−C0)]×100%, where Ti is the average tumor volume of a given administration group on a given day, T0 is the average tumor volume of the administration group at the start of administration, Ci is the average tumor volume of the control group on a given day (the same day as Ti), and C0 is the average tumor volume of the control group at the start of administration.

[4] = In vitro liver microsomal stability test, human; type: in vitro ADME; settings: Human liver microsomes, 1 μM compound, 0.5 mg/mL
Description: (§5) Liver microsomes: Human and animal microsomes were purchased from Corning or Xenotech and stored in a −80° C. freezer.
(§6) Reduced nicotinamide adenine dinucleotide phosphate (NADPH), supplier: Chem-Impex International, Cat. No.: 00616.
(§7) Stock solution: 10 mM DMSO solution
(§8) Preparation of working concentration: The stock solution was diluted to 100 µM using 100% acetonitrile (organic phase content: 99% acetonitrile, 1% DMSO).
(§9) Two 96-well incubation plates were prepared and named as T60 incubation plate and NCF60 incubation plate.
(§10) 445 μL of microsomal working solution (liver microsomal protein concentration of 0.56 mg/mL) was added to both the T60 incubation plate and the NCF60 incubation plate.
(§11) The two incubation plates were pre-incubated in a 37° C. water bath for approximately 10 minutes.
(§12) After pre-incubation, 5 μL of the test compound or control compound working solution was added to both the T60 incubation plate and the NCF60 incubation plate and mixed well. 50 μL of potassium phosphate buffer per well was added to the NCF60 incubation plate to initiate the reaction. 180 μL of termination solution (acetonitrile solution containing 200 ng/mL tolbutamide and 200 ng/mL labetalol) and 6 μL of NADPH regeneration system working solution were added to a TO termination plate. […]

[5] = Pharmacokinetic testing in Beagles; type: in vivo
Description: Experimental purpose: To test the pharmacokinetic properties of the compound of the present disclosure in Beagles.
Experimental materials: Beagles (male, >6 months old, Beijing Marshall Biotechnology Co., Ltd.)
The pharmacokinetic characteristics of the compound in dogs were tested following intravenous injection and oral administration according to a standard protocol. In the experiment, the test compound was prepared as a clear solution for single intravenous injection and single oral administration in dogs. In the case of intravenous injection, the dose was 2 mg/kg, with the vehicle being 5% DMSO/10% Solutol/85% water. In the case of oral administration, the dose was 10 mg/kg, with the vehicle being 5% DMSO/10% Solutol/85% water. Whole blood samples were collected within 48 hours, centrifuged at 3000 g for 15 minutes at 4° C., and the supernatant was separated to obtain plasma samples. 20 times the volume of acetonitrile solution containing internal standard was added to precipitate the protein. The samples were vortexed for 10 minutes and centrifuged at 3220 g for 15 minutes at 4° C. The supernatant was transferred to a 96-well plate and centrifuged at 3220 g for 5 minutes at 4° C. The supernatant was then injected for LC-MS/MS analysis to quantify plasma concentration, and pharmacokinetic parameters were calculated.

[6] = In vitro liver microsomal stability test, rat; type: in vitro ADME; settings: Rat liver microsomes, 1 μM compound, 0.5 mg/mL
Description: as §5, §6, §7, §8, §9, §10, §11, §12

[7] = In vitro liver microsomal stability test, dog; type: in vitro ADME; settings: Dog liver microsomes, 1 μM compound, 0.5 mg/mL
Description: as §5, §6, §7, §8, §9, §10, §11, §12

[8] = Pharmacokinetic testing in CD-1 mice; type: in vivo
Description: Experimental purpose: To test the pharmacokinetic properties of the compound of the present disclosure in CD-1 mice.
Experimental materials: CD-1 mice (female, 15 to 30 g, 6 to 9 weeks, Beijing Vital River Laboratory Animal Technology Co., Ltd.)
The pharmacokinetic characteristics of the compound in rodents were tested following intravenous injection and oral administration according to a standard protocol. In the experiment, the candidate compound was prepared as a clear solution for single intravenous injection and as a homogeneous suspension for single oral administration in mice. In the case of intravenous injection, the dose was 3 mg/kg, with the vehicle being 5% DMSO/10% Solutol/85% water. In the case of oral administration, the dose was 30 mg/kg, with the vehicle being 0.5% MC (4000 cps)/0.2% Tween-80. Whole blood samples were collected within 24 hours, centrifuged at 3000 g for 15 minutes at 4° C., and the supernatant was separated to obtain plasma samples. 20 times the volume of acetonitrile solution containing internal standard was added to precipitate the protein. The samples were vortexed for 10 minutes and centrifuged at 3220 g for 15 minutes at 4° C. The supernatant was transferred to a 96-well plate and centrifuged at 3220 g for 5 minutes at 4° C. The supernatant was then injected for LC-MS/MS analysis to quantify plasma concentration, and pharmacokinetic parameters were calculated.

IC50 [1]: > 10000 nM
IC50 [2]: 8 nM
SMILES: Cn1ncc(-c2ccc3c(=O)[nH]nc(CN)c3c2)c1-c1c(F)c(Cl)cc(OC2(C)CC2)c1C#N (single isomer, unassigned) [Compound 1A]

IC50 [1]: 4700 nM
IC50 [2]: 7.43 nM
SMILES: Cn1ncc(-c2ccc3c(=O)[nH]nc(CN)c3c2)c1-c1c(F)c(Cl)cc(OC2(C)CC2)c1C#N (single isomer, unassigned) [Compound 3A]

Liver microsomal stability CLint [4]: 20.4 mL/min/kg
Clearance ([5]; intravenous injection 2 mg/kg): 4.29 mL/min/kg
Half-life T1/2 ([5]; intravenous injection 2 mg/kg): 5.90 h
Bioavailability F ([5]; oral 10 mg/kg): 113%
Plasma concentration integral AUC0-last ([5]; oral 10 mg/kg): 91.502 µM·h
Liver microsomal stability CLint [6]: 53.6 mL/min/kg
Liver microsomal stability CLint [7]: 47.7 mL/min/kg
Clearance Cl ([8]; intravenous injection 3 mg/kg): 30.0 mL/min/kg
Half-life T1/2 ([8]; intravenous injection 3 mg/kg): 1.29 h
Bioavailability F ([8]; oral 30 mg/kg): 46.8%
Concentration integral AUC0-last ([8]; oral 30 mg/kg): 16.059 µM·h
SMILES: [2H]C([2H])([2H])n1ncc(-c2ccc3c(=O)[nH]nc(CN)c3c2)c1-c1c(F)c(Cl)cc(OC2(C)CC2)c1C#N [Compound 3A]
Tumor volume ([3]; 12.5 mg/kg daily by gavage, Day 0): 207 mm^3
Tumor volume ([3]; 12.5 mg/kg daily by gavage, Day 4): 253 mm^3
Tumor volume ([3]; 12.5 mg/kg daily by gavage, Day 8): 297 mm^3
Tumor volume ([3]; 12.5 mg/kg daily by gavage, Day 11): 331 mm^3
Tumor volume ([3]; 12.5 mg/kg daily by gavage, Day 15): 382 mm^3
Tumor volume ([3]; 12.5 mg/kg daily by gavage, Day 18): 440 mm^3
Tumor volume ([3]; 12.5 mg/kg daily by gavage, Day 22): 494 mm^3
Tumor volume ([3]; 12.5 mg/kg daily by gavage, Day 25): 565 mm^3
Tumor volume ([3]; 12.5 mg/kg daily by gavage, Day 29): 755 mm^3
TGI ([3]; 12.5 mg/kg daily by gavage): 66%
Tumor volume ([3]; 25 mg/kg daily by gavage, Day 0): 207 mm^3
Tumor volume ([3]; 25 mg/kg daily by gavage, Day 4): 254 mm^3
Tumor volume ([3]; 25 mg/kg daily by gavage, Day 8): 247 mm^3
Tumor volume ([3]; 25 mg/kg daily by gavage, Day 11): 240 mm^3
Tumor volume ([3]; 25 mg/kg daily by gavage, Day 15): 238 mm^3
Tumor volume ([3]; 25 mg/kg daily by gavage, Day 18): 248 mm^3
Tumor volume ([3]; 25 mg/kg daily by gavage, Day 22): 282 mm^3
Tumor volume ([3]; 25 mg/kg daily by gavage, Day 25): 363 mm^3
Tumor volume ([3]; 25 mg/kg daily by gavage, Day 29): 491 mm^3
TGI ([3]; 25 mg/kg daily by gavage): 83%
Tumor volume ([3]; 50 mg/kg daily by gavage, Day 0): 207 mm^3
Tumor volume ([3]; 50 mg/kg daily by gavage, Day 4): 239 mm^3
Tumor volume ([3]; 50 mg/kg daily by gavage, Day 8): 238 mm^3
Tumor volume ([3]; 50 mg/kg daily by gavage, Day 11): 209 mm^3
Tumor volume ([3]; 50 mg/kg daily by gavage, Day 15): 206 mm^3
Tumor volume ([3]; 50 mg/kg daily by gavage, Day 18): 193 mm^3
Tumor volume ([3]; 50 mg/kg daily by gavage, Day 22): 226 mm^3
Tumor volume ([3]; 50 mg/kg daily by gavage, Day 25): 273 mm^3
Tumor volume ([3]; 50 mg/kg daily by gavage, Day 29): 412 mm^3
TGI ([3]; 50 mg/kg daily by gavage): 87%
